Where two headings read alike, the source gives them in different places.
Assays:
[1] = system: STAT5 transcription (pSPI-GLE1-luc) in HEK-GHR cells; assay: HEK-GHR STAT5 transcription assay (luciferase reporter, rhGH stimulated); format: cell-based, human; details: compound 45 minutes before 50 nM rhGH, six hours, read-out: Activity (IC50, reduction of luciferase activity)
Text: Plasmids: The full-length GHR was subcloned into pcDNA1/ampicillin (Invitrogen) as described previously (Ross R J, Esposito N, Shen X Y, et al., Mol Endocrinol 1997, 11:265-73). The pSPI-GLE1 (serine protease inhibitor 2.1 GAS-like element 1)-luc reporter construct was generated by subcloning the Stat5-binding element from serine protease inhibitor gene together with a minimal thymidine kinase promoter into the pGL2 plasmid (Promega), which contains the firefly luciferase cDNA (Wood T J, Sliva D, Lobie P E, et al. J Biol Chem 1995, 270:9448-53).
Cell culture: HEK-GHR cell line was maintained in Dulbecco's Modified Eagle Medium (DMEM)/F12 supplemented with 10% fetal bovine serum (FBS) and 50 U/ml penicillin/50 U/ml streptomycin. The cells were maintained in a humidified incubator with 5% CO2 at 37° C. Cell culture reagents were obtained from PAA laboratories. The HEK-GHR cell line is a stable clone generated and kindly donated by Prof. Richard Ross (Clinical Sciences, Northern General Hospital, Sheffield, UK). Briefly, HEK-GHR cell line was generated in HEK 293 cells (human kidney embryonal cell line) by transfection with the calcium phosphate procedure of the GHR plasmid with pcDNA3/Neo (Invitrogen). Selection was made using G418 (400 ug/ml, Sigma) (Maamra M, Finidori J, Von Laue S, et al., J Biol Chem 1999, 274(21):14791-8).
Luciferase reporter assay: Transcription assays were performed in HEK-GHR. The HEK-GHR cells were co-transfected with Stat5 luciferase (pSPI-GLE1-luc) reporter vector together with a plasmid constitutively expressing beta-galactosidase by using Metafectene Pro as described by the manufacturer (Biontex Laboratories GmbH, Munich, Germany). Following transfection, HEK-GHR cells were serum-starved for 20 h. Cells were then treated with vehicle (0.1% DMSO) or the indicated compound for 45 minutes prior to the addition of 50 nM recombinant human Growth Hormone (rhGH) (Norditropin, Novo Nordisk) to the medium. Six hours following rhGH addition, cells were harvested with Passive Lysis Buffer (Promega), and levels of luciferase were measured using Luciferase Assay System as described by the manufacturer (Promega). The Galacto-Light Plus System (Applied Biosystems) was used to measure beta-galactosidase activity.
Statistical analysis. The concentration of drug that provokes 50% reduction of luciferase activity (IC50) was determined by using non-linear regression analysis and data were fitted to a log concentration vs normalized response curve in GraphPad software v5 (San Diego, Calif.).

HEL cells = assay: HEL-based MTT cell viability assay; parameters: species or system human; details: 48 h, read-out: Activity (IC50, reduction of cell viability)
Method: (§1) Cell viability was assayed by measuring the mitochondrial reduction of the tetrazolium salt 3-(4,5-methyltiazol-2yl)-2,5diphenyl-tetrazolium bromide] (MTT) (Applichen; A2231,0010) (Mosmann T. J Immunol Methods. 1983 16; 65(1-2):55-63; Chuan Y-C et al 2010. Oncogene. 29 (10), 1531-1542. Cells were seeded in 96-well plates in medium supplemented with 10% FBS (Lonza Cat. No: 14-502F), 2 mM L-Glut (Lonza Cat. No: BE17-605E) and 100 U/ml PEST (Lonza Cat. No: DE17-605E) at a cell density of 5000-20000 cells/well. Cells were seeded at a density according to their exponential growth phase. Vehicle (0.05% DMSO) or drug were added to culture medium at the indicated concentrations (10 to 0.01 microM) during 48 h. Then, MTT (0.3 mg/ml) was added to cells following by incubation for 2-4 h at 37° C. in the dark. The medium was then discarded and the formazan precipitate was solubilized by addition of 20% SDS (Sigma; L-5750) in 0.02N HCl (Panreac; 131020.1611) for 12-16 h. The optical density was measured at 595 nm with the iMark Microplate Reader (BioRad, USA). Data was expressed as percent growth above the level in controls and the results in figures were plotted as means±SEM of each test point from 3 replicates.
(§2) Statistical analysis. The concentration of drug that provokes 50% reduction of cell viability (IC50) was determined by using non-linear regression analysis and data were fitted to a log concentration vs normalized response curve in GraphPad software v5 (San Diego, Calif.).

K562 cells [2] = assay: K562-based MTT cell viability assay; parameters: species or system human; details: 48 h, read-out: Activity (IC50, reduction of cell viability)
Method: as §1, §2

JAK2 = JAK2 phosphorylation western blot assay; format: cell-based, human; details: 10 microM, HEL or K562 cells (table does not say which)
Method: (§3) The Human Erythroleukemia cell line HEL and the human Chronic Myeloid Leukemia cell line K562 were cultured in RPM I 1640 medium containing 10% fetal bovine serum (FBS) and 50 U/ml penicillin/50 U/ml streptomycin at 37° C. in a 5% CO2 humidified atmosphere to a density of 300.000 viable cells/mL in presence of WP1066 (positive control of phosphorylation inhibition) (Verstovsek et al., 2008) or CM-363 at concentrations of 1, 5 and 10 μM. Cell culture reagents were all obtained from BioWhittaker® (Lonza, Verniers, Belgium). Cell growth and viability was determined by propidium iodide (fluorescent dye) exclusion method using the Accuchip 4× Counting Kit and the ADAM automatic cell counter (Digital-Bio, NanoEntek, Ic., Washington St, Mass., USA).As a control of unspecific phosphorylation, some cells in each experiment were exposed to vehicle (negative control of phosphorylation inhibition) (0.1% DMSO).
(§4) For total protein extraction, cells were scraped with RIPA 1× lysis buffer (25 mM Tris-HCl pH 7.6, 150 mM NaCl, 1% NP-40, 1% sodium deoxycholate, 0.1% SDS, no. 89900, Thermo Scientific, Rockford, Ill., USA) supplemented with 1× protease and 1× phosphatase inhibitor cocktails (100× Halt™ Protease Inhibitor Cocktail, no. 87786 and 100× Halt Phosphatase Inhibitor Cocktail, no. 78420, both from Thermo Scientific, Rockford, Ill., USA). An aliquot of each extract was preserved for protein quantification by bicinchoninic acid assay (Pierce® BCA Protein Assay Kit, no. 23225, Thermo Scientific, Rockford, Ill., USA).
(§5) Proteins were solubilized in sample buffer containing 0.0625 M Tris-HCl, pH 6.8, 2.3% (wt/vol) SDS, 10% (vol/vol) glycerol, 5% (vol/vol) f3-mercaptoethanol, and 0.001% (wt/vol) bromophenol blue and boiled at 95° C. for 5 min. Equal amounts (50 μg) of each sample were electrophoresed on 8-10% sodium dodecyl sulfate-polyacrylamide gel electrophoresis (SDS-PAGE) and transferred to nitrocellulose membranes (iBlot® Gel Transfer Stacks, Nitrocellulose, no. IB4010-02, Invitrogen, Barcelona, Spain) as described previously (Fernandez, L, et al., Endocrinology, 13, 1815-1824, 1998; B. Guerra et al., J. Neurochem, 91, 99-109, 2004; B. Guerra et al., J. Appl. Physiol., 102, 1786-1792, 2007; B. Guerra et al., J. Appl. Physiol., 111, 715-725, 2011). The nitrocellulose membranes were then removed from the iBlot® Dry GelTransfer Device (no. IB1001EU, Invitrogen, Barcelona, Spain) and placed in a Ponceau S staining solution (0.5% Ponceau S and 1% glacial acetic acid in water) to verify equal loading of protein in the control and treated samples. After the membranes were stained for 5 min, they were rinsed for 2 min and examined. Equal loading of protein was verified, and the membranes were rinsed for an additional 10 min and immunoscreened. Membranes were blocked with 5% blotting grade blocker nonfat dry milk in Tris Buffered Saline with 0.05% Tween 20 (TBST; blotto-blocking buffer) for at least […]) at room temperature. They were washed thrice in TBS with 0.1% Tween 20 (TBST-0.1). Next, the membranes were incubated over night at 4° C. with the appropriate anti-phospho-antibodies (described below) all diluted (1:1000) in 1% bovine serum albumin (BSA)-1% blotto in TBST (BSA-blotto blocking buffer). […] Membranes were stripped of bound antibodies by incubation in stripping buffer (Restore™ Western Blot Stripping Buffer, no. 21059, Thermo Scientific, Rockford, Ill., USA) at room temperature for 30 min with agitation. Membranes were washed for 3×10 min in TBST-0.1, blocked with blotto-blocking buffer for at least 1 h and re-probed with the corresponding anti-total kinase antibodies (described below) all diluted (1:1000) in blotto-blocking buffer. […]

STAT5 [3] = assay: STAT5 phosphorylation western blot assay; format: cell-based, human; details: 10 microM, HEL or K562 cells (table does not say which)
Method: as §3, §4, §5

STAT5 [4] = details: K562 cells, 30-100 μM; cited from earlier work
K562 cells [5] = details: cited from earlier work

Row | SMILES | IC50 ([1]; Homo sapiens) [µM] | IC50 (HEL cells; Homo sapiens) [µM] | IC50 (K562 cells [2]; Homo sapiens) [µM] | Activity (inhibition of JAK2 phosphorylation) (JAK2) | Activity (inhibition of STAT5 phosphorylation) (STAT5 [3]) | IC50 [1] [µM] | IC50 (HEL cells) [µM] | IC50 (K562 cells [2]) [µM] | tyrosine phosphorylation of STAT5 (STAT5 [4]) | cell cycle phases in flow cytometry experiments (K562 cells [5])
1 | O=C1CCCC2=C1C(c1ccc(Cl)cc1)C1=C(N2)C(=O)c2ccccc2C1=O (stereo not shown) [Compound 1, 12-(4-chlorophenyl)-3,4-dihydrobenzo[b]acridine-1,6,11(2H,5H,12H)-trione] | < 5 | < 3 | < 10 | – | – | – | – | – | – | –
2 | N#Cc1ccc(C2C3=C(CCCC3=O)NC3=C2C(=O)c2ccccc2C3=O)cc1 (stereo not shown) [Compound 2, 4-(1,6,11-trioxo-1,2,3,4,5,6,11,12-octahydrobenzo[b]acridin-12-yl)benzonitrile] | < 1 | < 3 | < 1 | – | – | – | – | – | – | –
3 | CC1(C)CC(=O)C2=C(C1)OC1=C(C(=O)c3ccccc3C1=O)C2c1ccc(C#N)cc1 (stereo not shown) [Compound 3, 4-(3,3-dimethyl-1,6,11-trioxo-2,3,4,6,11,12-hexahydro-1H-benzo[b]xanthen-12-yl)benzonitrile] | < 1 | < 1 | < 1 | ++ (++represents an inhibition at 10 microM > 50%) | +++ (+++represents an inhibition at 10 microM > 75%) | – | – | – | – | –
4 | CC1(C)CC(=O)C2=C(C1)NC1=C(C(=O)c3ccncc3C1=O)C2c1ccccc1 (stereo not shown) [Compound 13] | – | – | – | ++ (++represents an inhibition at 10 microM > 50%) | +++ (+++represents an inhibition at 10 microM > 75%) | < 5 | < 3 | < 3 | – | –
5 | CC1(C)CC(=O)C2=C(C1)OC1=C(C(=O)c3ccccc3C1=O)C2c1ccc2c(c1)OCO2 (stereo not shown) [Compound 16, 12-(benzo[d][1,3]dioxol-5-yl)-3,3-dimethyl-3,4-dihydro-1H-benzo[b]xanthene-1,6,11(2H,12H)-trione] | < 5 | < 3 | < 3 | – | – | – | – | – | – | –
6 | O=C1CCCC2=C1C(c1ccc3c(c1)OCO3)C1=C(N2)C(=O)c2ccccc2C1=O (stereo not shown) [Compound 18] | – | – | – | ++ (++represents an inhibition at 10 microM > 50%) | + (+represents an inhibition at 10 microM > 50%) | – | – | < 10 | – | –
7 | O=C1CCCC2=C1C(c1ccccc1Cl)C1=C(N2)C(=O)c2ccccc2C1=O (stereo not shown) [Compound 22] | – | – | – | ++ (++represents an inhibition at 10 microM > 50%) | +++ (+++represents an inhibition at 10 microM > 75%) | < 5 | < 3 | – | – | –
8 | O=C1CCCC2=C1C(c1ccoc1)C1=C(N2)C(=O)c2ccccc2C1=O (stereo not shown) [Compound 24] | – | – | – | +++ (+++represents an inhibition at 10 microM > 75%) | + (+represents an inhibition at 10 microM > 50%) | < 5 | < 3 | – | – | –
9 | O=C1CCCC2=C1C(c1ccc(Br)cc1)C1=C(N2)C(=O)c2ccccc2C1=O (stereo not shown) [Compound 26, 12-(4-bromophenyl)-3,4-dihydrobenzo[b]acridine 1,6,11(2H,5H,12H)-trione] | < 5 | < 10 | < 1 | – | + (+represents an inhibition at 10 microM > 50%) | – | – | – | – | –
10 | O=C1CCCC2=C1C(c1cccc(Br)c1)C1=C(N2)C(=O)c2ccccc2C1=O (stereo not shown) [Compound 27] | – | – | – | + (+represents an inhibition at 10 microM > 30%) | – | < 5 | < 3 | < 10 | – | –
11 | COc1cc2ncnc(Nc3ccc(O)cc3)c2cc1OC [WHI-P131] | – | – | – | – | – | – | – | – | caused a reduction in tyrosine phosphorylation of STAT5 | dose-dependent decrease in G1 and S phases and an increase in G2/M phases
